Measured values: PMC9037111, “Structure-based design, synthesis, and biological evaluation of novel piperine–resveratrol hybrids as antiproliferative agents targeting SIRT-2” (RSC Advances, 2021)
Read-outs that look alike come from different tables or passages of the source.

Columns and labels:
UACC-62 = assay: cells; set-up: species or system NCI-60 human tumour cell lines; NCI-60 one-dose screen at 10 uM, percent growth inhibition versus untreated control cells; details: Homo sapiens, UACC-62, growth inhibition, one dose
Experimental: (§1) The antiproliferative activity of the target compounds 5a–h was screened against a panel of 60 cancer cell lines according to NCI-guidelines at concentration of 10 μM. The results for each compound (Table 1) were recorded as the percent of growth inhibition of treated cells compared to untreated control cells. […] In addition, 5b recorded significant activity against leukemia cancer cell lines K-562 and MOLT-4, Non-small cell lung cancer cell lines NCI-H322M and NCI-H460, Colon cancer cell lines COLO 205, HCT-15 and HCT-116, CNS cancer cell lines SF-295 and SF-539, Melanoma cancer cell lines LOX IMVI and UACC-62, Ovarian cancer cell lines NCI/ADR-RES, OVCAR-3, and OVCAR-4, Renal cancer cell lines CAKI-1, ACHN, and UO-31, and Breast cancer MCF7 cell line with growth inhibition percentage between 80 to 95. […] The methodology of the NCI anticancer screening has been described in detail elsewhere (https://dtp.cancer.gov/).[52]

BT-549 = assay: cells; set-up: species or system NCI-60 human tumour cell lines; NCI-60 one-dose screen at 10 uM, percent growth inhibition versus untreated control cells; details: Homo sapiens, BT-549; growth inhibition, one dose; read-out: Growth% inhibition / 5c
Experimental: as §1

SF-539 = assay: cells; set-up: species or system NCI-60 human tumour cell lines; NCI-60 one-dose screen at 10 uM, percent growth inhibition versus untreated control cells; details: Homo sapiens, SF-539; growth inhibition, one dose; read-out: Growth% inhibition / 5c
Experimental: as §1

MCF7 = assay: cells; set-up: species or system NCI-60 human tumour cell lines; NCI-60 one-dose screen at 10 uM, percent growth inhibition versus untreated control cells; details: Homo sapiens, MCF7; growth inhibition, one dose; read-out: Growth% inhibition / 5c
Experimental: as §1

K-562 = assay: cells; set-up: species or system NCI-60 human tumour cell lines; NCI-60 one-dose screen at 10 uM, percent growth inhibition versus untreated control cells; details: Homo sapiens, K562; growth inhibition, one dose; read-out: Growth% inhibition / 5c
Experimental: as §1

UO-31 = assay: cells; set-up: species or system NCI-60 human tumour cell lines; NCI-60 one-dose screen at 10 uM, percent growth inhibition versus untreated control cells; details: Homo sapiens, UO-31, growth inhibition, one dose
Experimental: as §1

T-47D = assay: cells; set-up: species or system NCI-60 human tumour cell lines; NCI-60 one-dose screen at 10 uM, percent growth inhibition versus untreated control cells; details: Homo sapiens, T47D; growth inhibition, one dose; read-out: Growth% inhibition / 5c
Experimental: as §1

RPMI-8226 = assay: cells; set-up: species or system NCI-60 human tumour cell lines; NCI-60 one-dose screen at 10 uM, percent growth inhibition versus untreated control cells; details: Homo sapiens, RPMI-8226; growth inhibition, one dose; read-out: Growth% inhibition / 5c
Experimental: as §1

CCRF-CEM = assay: cells; set-up: species or system NCI-60 human tumour cell lines; NCI-60 one-dose screen at 10 uM, percent growth inhibition versus untreated control cells; details: Homo sapiens, CCRF-CEM; growth inhibition, one dose; read-out: Growth% inhibition / 5c
Experimental: as §1

NCI-H522 = assay: cells; set-up: species or system NCI-60 human tumour cell lines; NCI-60 one-dose screen at 10 uM, percent growth inhibition versus untreated control cells; details: Homo sapiens, NCI-H522; growth inhibition, one dose; read-out: Growth% inhibition / 5c
Experimental: as §1

NCI-H226 = assay: cells; set-up: species or system NCI-60 human tumour cell lines; NCI-60 one-dose screen at 10 uM, percent growth inhibition versus untreated control cells; details: Homo sapiens, NCI-H226, growth inhibition, one dose
Experimental: as §1

NCI-H322M = assay: cells; set-up: species or system NCI-60 human tumour cell lines; NCI-60 one-dose screen at 10 uM, percent growth inhibition versus untreated control cells; details: Homo sapiens, NCI-H322M; growth inhibition, one dose; read-out: Growth% inhibition / 5c
Experimental: as §1

SIRT2 [1] = molecular target: T1, SIRT2 (Homo sapiens, UniProt Q8IXJ6); assay: sirtuin deacetylase inhibition assay, % inhibition at […] ([…] at […]); type: biochemical
T1 sequence (Q8IXJ6 2-389): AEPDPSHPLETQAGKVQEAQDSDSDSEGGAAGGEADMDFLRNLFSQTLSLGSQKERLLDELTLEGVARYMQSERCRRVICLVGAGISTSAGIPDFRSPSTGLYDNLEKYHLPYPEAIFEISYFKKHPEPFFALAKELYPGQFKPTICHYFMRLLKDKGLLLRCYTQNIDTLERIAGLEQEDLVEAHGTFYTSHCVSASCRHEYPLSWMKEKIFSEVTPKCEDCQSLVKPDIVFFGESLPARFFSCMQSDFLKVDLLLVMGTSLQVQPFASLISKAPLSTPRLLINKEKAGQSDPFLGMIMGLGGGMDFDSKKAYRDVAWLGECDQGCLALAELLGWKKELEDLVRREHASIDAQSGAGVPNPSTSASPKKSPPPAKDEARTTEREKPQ

SIRT2 [2] = molecular target: T1, SIRT2; assay: biochemical; set-up: Sirtuin-TK assay, percent inhibition of human SIRT1 or SIRT2 at 5 and 50 uM
Experimental: (§2) Sirtuin-TK assay was performed to estimate the Sirtuins inhibitory potential of 5a–h (Tables 2 and 3). The results of this test strongly complemented the findings of cancer cell-based assessments. […] Of the 8 compounds evaluated, 3 analogs (5b, 5e and 5h) were more likely to inhibit Sirt2 (>70% inhibition) than Sirt1 (<50% inhibition) at 50 μM. The other compounds were poor inhibitors of both enzymes. […] 4.2.2. Sirtuin inhibitory assay

SIRT1 = molecular target: T2, SIRT1 (Homo sapiens, UniProt Q96EB6); assay: biochemical; set-up: Sirtuin-TK assay, percent inhibition of human SIRT1 or SIRT2 at 5 and 50 uM
T2 sequence (Q96EB6 2-747): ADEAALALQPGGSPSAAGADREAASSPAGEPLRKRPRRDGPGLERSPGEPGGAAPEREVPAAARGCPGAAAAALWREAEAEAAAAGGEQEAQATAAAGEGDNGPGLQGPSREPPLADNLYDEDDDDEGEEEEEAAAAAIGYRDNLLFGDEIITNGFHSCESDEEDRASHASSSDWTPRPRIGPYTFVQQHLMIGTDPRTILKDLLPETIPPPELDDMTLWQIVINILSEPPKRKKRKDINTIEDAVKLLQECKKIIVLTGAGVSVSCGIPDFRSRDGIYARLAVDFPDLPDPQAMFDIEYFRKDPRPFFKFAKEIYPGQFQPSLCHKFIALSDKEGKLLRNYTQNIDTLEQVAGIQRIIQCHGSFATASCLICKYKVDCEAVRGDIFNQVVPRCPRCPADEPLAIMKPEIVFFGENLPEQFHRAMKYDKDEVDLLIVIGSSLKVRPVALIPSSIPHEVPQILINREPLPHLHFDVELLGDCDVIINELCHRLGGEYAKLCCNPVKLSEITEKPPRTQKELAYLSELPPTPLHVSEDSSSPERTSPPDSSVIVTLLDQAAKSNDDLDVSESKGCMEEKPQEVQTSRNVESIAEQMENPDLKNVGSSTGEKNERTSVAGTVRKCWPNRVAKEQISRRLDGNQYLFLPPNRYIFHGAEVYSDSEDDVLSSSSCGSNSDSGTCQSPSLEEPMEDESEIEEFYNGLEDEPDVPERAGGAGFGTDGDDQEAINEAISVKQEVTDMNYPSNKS
Experimental: as §2

IGROV1 = assay: cells; set-up: species or system NCI-60 human tumour cell lines; NCI-60 one-dose screen at 10 uM, percent growth inhibition versus untreated control cells; details: Homo sapiens, IGROV-1, growth inhibition, one dose
Experimental: as §1

LOX IMVI = assay: cells; set-up: species or system NCI-60 human tumour cell lines; NCI-60 one-dose screen at 10 uM, percent growth inhibition versus untreated control cells; details: Homo sapiens, LOX IMVI; growth inhibition, one dose; read-out: Growth% inhibition / 5g
Experimental: as §1

SNB-75 = assay: cells; set-up: species or system NCI-60 human tumour cell lines; NCI-60 one-dose screen at 10 uM, percent growth inhibition versus untreated control cells; details: Homo sapiens, SNB-75, growth inhibition, one dose
Experimental: as §1

SIRT2 [3] = molecular target: T1, SIRT2; assay: sirtuin deacetylase inhibition assay, % inhibition at […] ([…] at […]); type: biochemical; remark: listed apart in the source
CAKI-1 = assay: cells; set-up: species or system NCI-60 human tumour cell lines; NCI-60 one-dose screen at 10 uM, percent growth inhibition versus untreated control cells; details: Homo sapiens, CAKI-1; growth inhibition, one dose; read-out: Growth% inhibition / 5f
Experimental: as §1

SR = assay: cells; set-up: species or system NCI-60 human tumour cell lines; NCI-60 one-dose screen at 10 uM, percent growth inhibition versus untreated control cells; details: Homo sapiens, SR; growth inhibition, one dose; read-out: Growth% inhibition / 5f
Experimental: as §1

HOP-92 = assay: cells; set-up: species or system NCI-60 human tumour cell lines; NCI-60 one-dose screen at 10 uM, percent growth inhibition versus untreated control cells; details: Homo sapiens, HOP-92; growth inhibition, one dose; read-out: Growth% inhibition / 5f
Experimental: as §1

SIRT2 [4] = molecular target: T1, SIRT2; assay: sirtuin deacetylase inhibition assay, % inhibition at […] ([…] at […]); type: biochemical; remark: listed apart in the source
[5] = read-out: Growth% inhibition / 5c
[6] = read-out: Growth% inhibition / 5g
[7] = read-out: Growth% inhibition / 5f

Work on `COc1cc(C=NNC(=O)/C=C/C=C/c2ccc3c(c2)OCO3)ccc1O` [5c, (2E,4E)-5-(Benzo[d][1,3]dioxol-5-yl)-N′-((E,Z)-4-hydroxy-3-methoxybenzylidene)penta-2,4-dienehydrazide] yielded an inhibition at 10 µM (UACC-62; [5]) of 11.3%, an inhibition at 10 µM (BT-549) of 13.6% and an inhibition at 10 µM (SF-539) of 15.3%. It also gave an inhibition at 10 µM (MCF7) of 20.1%, an inhibition at 10 µM (K-562) of 10.5% and an inhibition at 10 µM (UO-31; [5]) of 14%. It also gave an inhibition at 10 µM (T-47D) of 19.8%, an inhibition at 10 µM (RPMI-8226) of 15.3% and an inhibition at 10 µM (CCRF-CEM) of 12.1%. The inhibition at 10 µM (NCI-H522) was 22%, the inhibition at 10 µM (NCI-H226; [5]) was 18.3% and the inhibition at 10 µM (NCI-H322M) was 14.7%. For the same compound, the inhibition at 50 µM (SIRT2 [1]) was 58 ± 3%, the inhibition at 5 µM (SIRT2 [2]) was 17 ± 3% and the inhibition at 5 µM (SIRT1) was 12 ± 1%. The inhibition at 50 µM (SIRT1) was 38 ± 3%.

In the case of `CC(C)(C)c1cc(/C=N/NC(=O)/C=C/C=C/c2ccc3c(c2)OCO3)c(O)c(C(C)(C)C)c1` [5g, (2E,4E)-5-(Benzo[d][1,3]dioxol-5-yl)-N′-((E)-3,5-di-tert-butyl-2-hydroxy-benzylidene)penta-2,4-dienehydrazide], the inhibition at 10 µM (IGROV1; [6]) is reported as 14.1%, the inhibition at 10 µM (UO-31; [6]) is reported as 27.9% and the inhibition at 10 µM (LOX IMVI) is reported as 12.1%. For the same compound, the inhibition at 10 µM (SNB-75; [6]) was 33%, the inhibition at 10 µM (NCI-H226; [6]) was 10.1% and the inhibition at 50 µM (SIRT2 [3]) was 55 ± 1%. It also gave an inhibition at 5 µM (SIRT2 [2]) of 19 ± 2%, an inhibition at 5 µM (SIRT1) of 9 ± 2% and an inhibition at 50 µM (SIRT1) of 35 ± 1%.

With `O=C(/C=C/C=C/c1ccc2c(c1)OCO2)NN=C(c1ccc(F)cc1)c1ccc(F)cc1` [5f, (2E,4E)-5-(Benzo[d][1,3]dioxol-5-yl)-N′-(bis(4-fluorophenyl)methylene)penta-2,4-dienehydrazide] the inhibition at 10 µM (IGROV1; [7]) was 12.1%, the inhibition at 10 µM (UACC-62; [7]) was 12.2% and the inhibition at 10 µM (CAKI-1) was 12.8%. For the same compound, the inhibition at 10 µM (UO-31; [7]) was 18.3%, the inhibition at 10 µM (SR) was 36.3% and the inhibition at 10 µM (HOP-92) was 13.8%. For the same compound, the inhibition at 10 µM (SNB-75; [7]) was 16.6%, the inhibition at 50 µM (SIRT2 [4]) was 69 ± 3% and the inhibition at 5 µM (SIRT2 [2]) was 20 ± 4%. It also gave an inhibition at 5 µM (SIRT1) of 14 ± 4% and an inhibition at 50 µM (SIRT1) of 39 ± 3%.
